Measured values as given in the supplement of paper PMC11061612.

Assays:
Experiment in all cases: Bliss excess, mean over the matrix (fraction); higher = more synergy
SF268 (Low Grade Glioma) = tested on: SF268 (Low Grade Glioma)
In short: (§1)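 After 24 hours at 37°C and 5% CO2 in 1536-well plates, cells in DMEM/F12 or RPMI plus 10% FBS received two-drug dose matrices for 72 hours. Viability came from CellTiter-Glo 2.0 luminescence and was scaled as inhibition, anchored at 0 by vehicle wells and at 1 by blank wells. Combination Emax is taken as the second-highest inhibition in the matrix, and Bliss excess as the observed combination effect less EA + EB − EA·EB, with EA and EB the single-agent effects.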

[1] = tested on: LXF-289 (Lung Adenocarcinoma)
In short: as §1

[2] = tested on: 23132-87 (Gastric Carcinoma)
In short: as §1

A2058 (Melanoma) = tested on: A2058 (Melanoma)
In short: as §1

[3] = tested on: REH (B-Lymphoblastic Leukemia)
In short: as §1

[4] = tested on: HSC-39 (Gastric Carcinoma)
In short: as §1

[5] = tested on: GP5d (Colorectal Carcinoma)
In short: as §1

[6] = tested on: LK-2 (Squamous Cell Lung Carcinoma)
In short: as §1

[7] = tested on: KE-37 (T-Lymphoblastic Leukemia)
In short: as §1

WM793B (Melanoma) = tested on: WM793B (Melanoma)
In short: as §1

[8] = tested on: PSN1 (Pancreatic Carcinoma)
In short: as §1

[9] = tested on: RERF-LC-Sq1 (Squamous Cell Lung Carcinoma)
In short: as §1

[10] = tested on: VAL (B-Cell Non-Hodgkin's Lymphoma)
In short: as §1

[11] = tested on: SU-DHL-10 (B-Cell Non-Hodgkin's Lymphoma)
In short: as §1

WM278 (Melanoma) = tested on: WM278 (Melanoma)
In short: as §1

[12] = tested on: CAL-120 (Breast Carcinoma)
In short: as §1

[13] = tested on: L-1236 (Hodgkin's Lymphoma)
In short: as §1

[14] = tested on: CAL-62 (Thyroid Gland Carcinoma)
In short: as §1

[15] = tested on: LB996-RCC (Kidney Carcinoma)
In short: as §1

[16] = tested on: TE-8 (Esophageal Squamous Cell Carcinoma)
In short: as §1

Structure (SMILES)	Bliss excess (SF268 (Low Grade Glioma))	Bliss excess [1]	Bliss excess [2]	Bliss excess (A2058 (Melanoma))	Bliss excess [3]	Bliss excess [4]	Bliss excess [5]	Bliss excess [6]	Bliss excess [7]	Bliss excess (WM793B (Melanoma))	Bliss excess [8]	Bliss excess [9]	Bliss excess [10]	Bliss excess [11]	Bliss excess (WM278 (Melanoma))	Bliss excess [12]	Bliss excess [13]	Bliss excess [14]	Bliss excess [15]	Bliss excess [16]
CN(CCO)CC[C@H](CSc1ccccc1)Nc1ccc(S(=O)(=O)NC(=O)c2ccc(N3CCC([C@@H](O)c4ccccc4-c4ccc(Cl)cc4)CC3)cc2)cc1S(=O)(=O)C(F)(F)F [AZD4320] + C[C@@H]1COCCN1C2=NC(=NC(=C2)C3(CC3)[S@](=N)(=O)C)C4=C5C=CNC5=NC=C4 [AZD6738] (first compound max 1 µM, 7x7, partner max 10 µM)	0.023	0.0029	0.0832	-0.0088	0.0532	-0.0108	-0.0515	-0.0267	-0.0133	-0.0406	-0.0798	-0.0082	0.0095	0.0076	-0.0404	-0.0313	0.0169	0.0112	-0.0179	-0.0357
CC(=O)c1c(C)c2cnc(Nc3ccc(N4CCNCC4)cn3)nc2n(C2CCCC2)c1=O [Palbociclib] + CC1(C)CCC(CN2CCN(c3ccc(C(=O)NS(=O)(=O)c4ccc(NCC5CCOCC5)c([N+](=O)[O-])c4)c(Oc4cnc5[nH]ccc5c4)c3)CC2)=C(c2ccc(Cl)cc2)C1 [Venetoclax] (first compound max 10 µM, 7x7, partner max 1 µM)	-0.0344	-0.0189	-0.0416	-0.0231	-0.0446	-0.0476	-0.011	-0.0179	0.0258	0.0241	-0.0149	0.0475	-0.0109	-0.0873	-0.0338	-0.0523	0.0003	-0.029	0.0044	-0.0784
COc1nnc2ccc(N3CCC(c4ccc(OCCN5CCN(C)C(=O)[C@H]5C)cc4)CC3)nn12 [AZD5153] + CCN(CCO)CCCOc1ccc2c(Nc3cc(CC(=O)Nc4cccc(F)c4)[nH]n3)ncnc2c1 [AZD2811] (first compound max 1 µM, 7x7, partner max 1 µM)	-0.0592	0.0227	-0.0223	0.0568	-0.0891	-0.006	-0.082	-0.282	-0.0085	-0.0567	0.0384	0.0063	-0.0945	-0.049	-0.0654	0.0045	-0.027	-0.0497	-0.106	-0.0152
